A short description of data set [1]: Circular dichroism folding (% folded from ellipticity at 222 nm). Particulars: CD 222 nm, no metal, 10 mM HEPES pH 7.0, 293 K, triplicate. The format is physicochemical.
Data set [2] is described as follows: Native mass spectrometry metalation. The data set is classed as binding. Particulars: 10 μM trimer : 10 μM metal, 50 mM ammonium acetate pH 6.8, room temperature, 60 min. The text has this: This preserves noncovalent interactions enabling coiled coil complexes to be detected. […] (C) Representative full Tb(III) emission spectra for each titration point. λex = 280 nm. […] Error bars determined from standard deviation error of three independent repeat experiments. […] page 4: […] Upon successful purification, removal of Tb(III) was confirmed on a small aliquot of cross-linked peptide by fluorescence spectroscopy. Here the absence of enhanced/sensitized Tb(III) emission, at 545 nm, is consistent with complete […] Stock solutions preparation: In all experiments, the concentration of peptide stock […] Once samples were prepared, the concentration of the solutions were checked by UV vis and adjust if necessary. All GdCl3 and TbCl3 stock solutions were freshly […] solutions were also freshly prepared and determined in a similar fashion using EDTA and xylenol orange indicator solution.6 The equivalence of metal added was then adjust to the exact concentration of peptide in the sample. […] in volumetric glassware using MilliQ water. Native mass spectrometry (MS): […] ammonium acetate pH 6.8. The concentrations of the peptides were measured using the […] Metal stock solutions were initially prepared by […] These stock solutions were then […] […] The observed molecular weights were calculated from an average of 3 charge states. […]

Data set [3] deals with T1, trypsin (bovine pancreas) (Bos taurus, UniProt P00760).
T1 construct: from tissue; host or cells: bovine pancreas
T1 sequence (P00760 24-246): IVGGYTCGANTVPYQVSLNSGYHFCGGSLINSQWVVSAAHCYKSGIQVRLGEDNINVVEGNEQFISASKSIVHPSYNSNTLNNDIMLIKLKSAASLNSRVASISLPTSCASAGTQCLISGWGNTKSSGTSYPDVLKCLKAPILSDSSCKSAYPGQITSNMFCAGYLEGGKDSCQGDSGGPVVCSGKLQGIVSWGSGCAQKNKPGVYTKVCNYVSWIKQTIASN
Put plainly: in vitro. The format is in vitro ADME. As to conditions: 100 µM, 12 μM trypsin, 100 mM HEPES pH 7.5, 37 °C, HPLC. The procedure:
(§1) page 8: determined as reported periously10 at the data was fitted to the Hills equation using MatLab.11 Stability Studies: Zinc transmetallation experiments: Emission spectra of Tb(III) were recorded for 1.0 µM […] Zinc chloride (ZnCl₂) was then added to each cuvette to give a final concentration of 125 µM Zn(II), and the fluorescence emission spectra were subsequently collected over time. The Tb(III) emission for each sample was normalized to the integrated intensity of the 545 nm emission peak from the initial spectrum. Phosphate and HEPES: Emission spectra of Tb(III) were recorded for 1.0 µM solutions of […] Phosphate buffer prepared from a mixture of sodium monobasic and tribasic phosphate salts (to give a stock concentration of 100 mM at pH 7.0) […] Fluorescence emission spectra were subsequently collected over time. The Tb(III) emission for each sample was normalized to the integrated intensity of the 545 nm emission peak from the initial spectrum. A control was carried out using the same methodology, this time monitoring the change in Tb emission upon the addition of HEPES buffer instead of phosphate. Protease experiments: A trypsin (bovine pancreas) stock solution was prepared (1.5 mg/mL) by dissolving in 100 mM HEPES at pH 7.5. The peptide stock solution was prepared by dissolving the lyophilized peptide in the same buffer solution, and the concentration determined as reported previously. In the case when the peptide was metalated, samples were left to equilibrate with the metal upon addition for around 60 min. prior to the addition of the trypsin. Samples were left to incubate in a water bath at 37°C. At specific time points, 35 µl of each sample were taken and quenched with 35 µl of 4% TFA solution. […] Individual peaks from the HPLC were collected and then analyzed by ESI mass spectrometry in positive mode. Samples were ionised using nanoelectrospray ionisation (TriVersa NanoMate, Advion Interchim Scientific, […] 8 page 27: Figure S14: […] Figure S14: […] pancreas) and 100 mM HEPES buffered at pH 7.5. […] monitored. 27 (1 picture or pasted object on this page, not shown here) page 28: Figure S15: […] Figure S15: […] pancreas) and 100 mM HEPES buffered at pH 7.5. […] monitored. 28 (1 picture or pasted object on this page, not shown here)

In data set [4] the test system is T2, trypsin (bovine pancreas).
T2 construct: from tissue; host or cells: bovine pancreas
Put plainly: in vitro. The data set is classed as in vitro ADME. As to conditions: isolated enzyme trypsin, 100 µM, 12 μM trypsin, 100 mM HEPES pH 7.5, 37 °C, HPLC, trimers lacking C-terminal G-NH2 or Ac-G IAAIEQK counted. The procedure:
as §1

Bridges are numbered along the chain shown (N, C = ends). Roman numbers before positions name the chains, in order.

For orientation: share remaining means what is left of the initial amount, in per cent. In the case of “I: Ac-GIAAIEQKIAANEWKDAAIEQKIAAIEQKIAAIEQKG-NH2 / II: Ac-GIAAIEQKIAANEWKDAAIEQKIAAIEQKIAAIEQKG-NH2 / III: Ac-GIAAIEQKIAANEWKDAAIEQKIAAIEQKIAAIEQKG-NH2 (amide I:15-II:20, I:20-III:15, II:15-III:20) [KH2-20X]”, the “% apo folding (10.0 μM trimer)” value in data set [1] was 96 ± 3%. Moreover, in data set [2], the “% metalation by native mass spectrometry” value is reported as 95–100%. In data set [3], the “abundance of trimeric cross-linked IAANEWK DAAIEQK fragment at 30 min, apo” value worked out at 5% and the “abundance of trimeric cross-linked IAANEWK DAAIEQK fragment at 6 h, apo” value is given as 20%. In addition, the share remaining at 0.5 h in data set [4] (read-out: % remaining intact as trimers after 30 min trypsin, apo) is ~74%. In addition, the amount remaining at 6 h in data set [4] (read-out: % remaining intact as trimers after 6 h trypsin, apo) was ~45%.

For the origin of these results see article PMC12636026 (Journal of the American Chemical Society, 2025).
